Where a name gives a salt, the structure may show the parent alone. Read-outs that look alike come from different tables or passages of the source.
Experiments:
[1] = Example 1: phase I crossover food-effect study, single-dose pharmacokinetics of nelfinavir 250 mg tablets (total kilocalories and fat); type: in vivo, human (normal healthy volunteers); details: for half-life / AUC / Cmax / Tmax / AUC(0-t) / AUC(0-inf): human, plasma, 1250 mg; for AUC: read-out: AUC12; for AUC(0-t): read-out: AUC(0-tlqc), least-squares mean; for AUC(0-inf): read-out: AUC(0-∞) (AUCinf), least-squares mean
Protocol: A phase I, randomized, open-label crossover study to evaluate the impact of total kilocalories and fat content on single-dose pharmacokinetic parameters of the nelfinavir 250 mg tablet formulation in normal healthy volunteers was performed. Healthy volunteers entered the study and received the following treatment in random order at least 1 week apart: 1) 5×250 mg nelfinavir tablets, fasted 2) 5×250 mg nelfinavir tablets (breakfast meal 1, 125 Kcal/20% fat=low cal/low fat) 3) 5×250 mg nelfinavir tablets (breakfast meal 2, 500 Kcal/20% fat=medium cal/low fat) 4) 5×250 mg nelfinavir tablets (breakfast meal 3, 1000 Kcal/50% fat=high cal/high fat). Plasma concentrations of nelfinavir and its active hydroxy-t-butylamide metabolite (M8) were measured by validated high performance liquid chromatography (HPLC) methods. Pharmacokinetic parameters were determined from plasma concentration-time data using standard methods. Nelfinavir was administered as five 250-mg tablets with 240 mL of water. All subjects received a standardized snack the evening they were admitted to the in-patient facility. For the fasting evaluation, subjects were required to complete an overnight fast of at least 10 hours prior to dosing in the morning. For the fed pharmacokinetic evaluations, subjects were required to complete an overnight fast of at least 10 hours, prior to receiving the protocol-specific standardized breakfast meal (that is, Meal 1, Meal 2, or Meal 3). Subjects were given 30 minutes to complete their standardized breakfast meal. Dosing was performed in the morning, immediately following the subject's completion of the standardized breakfast meal and after the subject's pre-dose pharmacokinetic specimen had been collected. Subjects could not ingest water 1 hour prior to or 1 hour after dosing. A standardized lunch was given at least 4 hours after the morning dose and a standardized dinner was given at least 10 hours after the morning dose. For pharmacokinetic sampling, blood samples, 5 mL each, were collected into heparinized vacuum tubes (green top tubes) via an indwelling catheter or direct venipuncture. The actual time of each collection was recorded on the source document. The timing of each sample collection was as follows: predose and at 0.5, 1, 2, 3, 4, 6, 8, and 12 hours postdose on Days 1, 8,15, and 22. Pharmacokinetic parameter values were calculated using WinNonlin Pro Version 2.1. Individual nelfinavir plasma concentrations were used to predict steady-state plasma concentrations during BID administration with meals of various Kcal content. WinNonlin Pro Version 3.2 noncompartmental superposition was used for this simulation. Predicted steady-state Cmax and Cmin values were compared.

[2] = single dose; cited from earlier work
[3] = meals 517 to 759 Kcal, 153 to 313 Kcal from fat; cited from earlier work
[4] = light breakfast 350 kcal/13 g fat vs standard breakfast 800 kcal/35 g fat; cited from earlier work
[5] = cited from earlier work
[6] = po, nelfinavir, 1250 mg single oral dose with high calorie/high fat meal (1000 Kcal/50% fat)
[7] = po, nelfinavir, 1250 mg single oral dose with low calorie/low fat meal (125 Kcal/20% fat)
[8] = po, nelfinavir, 1250 mg single oral dose with moderate calorie/low fat meal (500 Kcal/20% fat)
[9] = po, nelfinavir, 1250 mg single oral dose, fasting (reference)
[10] = nelfinavir, 125 kcal/20% fat relative to fasting
[11] = nelfinavir, 500 kcal/20% fat relative to fasting
[12] = nelfinavir, 1000 kcal/50% fat relative to fasting
[13] = nelfinavir, high calorie/high fat meal (1000 Kcal/50% fat) vs fasting
[14] = nelfinavir, low calorie/low fat meal (125 Kcal/20% fat) vs fasting
[15] = nelfinavir, moderate calorie/low fat meal (500 Kcal/20% fat) vs fasting

half-life ([1]; oral, nelfinavir, across fasting and the three meals, read-out: half-life (t½), range of mean values): 3.6 to 5.6 h
AUC ([1]; oral, nelfinavir, food intake 125 kcal/20% fat): 20000 ng·h/mL
Cmax ([1]; oral, nelfinavir, food intake 125 kcal/20% fat, read-out: Cmax (Table 5)): 3160 ng/mL
AUC ([1]; oral, nelfinavir, food intake 500 kcal/20% fat): 25500 ng·h/mL
Cmax ([1]; oral, nelfinavir, food intake 500 kcal/20% fat, read-out: Cmax (Table 5)): 3670 ng/mL
AUC ([1]; oral, nelfinavir, food intake 1000 kcal/50% fat): 38900 ng·h/mL
Cmax ([1]; oral, nelfinavir, food intake 1000 kcal/50% fat, read-out: Cmax (Table 5)): 5200 ng/mL
Tmax ([1]; oral, nelfinavir, high calorie meal, read-out: mean tmax longer relative to fasting subjects): ~2 h
Tmax ([1]; oral, nelfinavir, low calorie meal, read-out: mean tmax longer relative to fasting subjects): ~1 h
Tmax ([1]; oral, nelfinavir, moderate calorie meal, read-out: mean tmax longer relative to fasting subjects): ~1.5 h
Cmax ([1]; po, nelfinavir in plasma, 1250 mg single oral dose with high calorie/high fat meal (1000 Kcal/50% fat), read-out: Cmax, least-squares mean): 5200 ng/mL
Cmax ([1]; po, nelfinavir in plasma, 1250 mg single oral dose with low calorie/low fat meal (125 Kcal/20% fat), read-out: Cmax, least-squares mean): 3160 ng/mL
Cmax ([1]; po, nelfinavir in plasma, 1250 mg single oral dose with moderate calorie/low fat meal (500 Kcal/20% fat), read-out: Cmax, least-squares mean): 3670 ng/mL
Cmax ([1]; po, nelfinavir in plasma, 1250 mg single oral dose, fasting (reference), read-out: Cmax, least-squares mean): 1570 ng/mL
AUC(0-t) [1, 6]: 38900 ng·h/mL
AUC(0-inf) [1, 6]: 55300 ng·h/mL
half-life ([1]; po, nelfinavir, 1250 mg single oral dose with high calorie/high fat meal (1000 Kcal/50% fat), read-out: t1/2 (terminal half-life), least-squares mean (converted)): 5.63 h
Tmax ([1]; po, nelfinavir, 1250 mg single oral dose with high calorie/high fat meal (1000 Kcal/50% fat), read-out: tmax, least-squares mean): 3.98 h
AUC(0-t) [1, 7]: 20000 ng·h/mL
AUC(0-inf) [1, 7]: 23100 ng·h/mL
half-life ([1]; po, nelfinavir, 1250 mg single oral dose with low calorie/low fat meal (125 Kcal/20% fat), read-out: t1/2 (terminal half-life), least-squares mean (converted)): 3.59 h
Tmax ([1]; po, nelfinavir, 1250 mg single oral dose with low calorie/low fat meal (125 Kcal/20% fat), read-out: tmax, least-squares mean): 3.02 h
AUC(0-t) [1, 8]: 25500 ng·h/mL
AUC(0-inf) [1, 8]: 33400 ng·h/mL
half-life ([1]; po, nelfinavir, 1250 mg single oral dose with moderate calorie/low fat meal (500 Kcal/20% fat), read-out: t1/2 (terminal half-life), least-squares mean (converted)): 4.77 h
Tmax ([1]; po, nelfinavir, 1250 mg single oral dose with moderate calorie/low fat meal (500 Kcal/20% fat), read-out: tmax, least-squares mean): 3.87 h
AUC(0-t) [1, 9]: 9040 ng·h/mL
AUC(0-inf) [1, 9]: 10600 ng·h/mL
half-life ([1]; po, nelfinavir, 1250 mg single oral dose, fasting (reference), read-out: t1/2 (terminal half-life), least-squares mean (converted)): 4.1 h
Tmax ([1]; po, nelfinavir, 1250 mg single oral dose, fasting (reference), read-out: tmax, least-squares mean): 2.18 h
AUC ([1]; po, nelfinavir, 1250 mg single oral dose, fasting): 9040 ng·h/mL
Cmax ([1]; po, nelfinavir, 1250 mg single oral dose, fasting, read-out: Cmax (Table 5)): 1570 ng/mL
AUC(0-∞) (AUCinf), least-squares mean ([1]; nelfinavir, 1250 mg single oral dose with high calorie/high fat meal (1000 Kcal/50% fat)): 55300 ng·h/mL
AUC(0-∞) (AUCinf), least-squares mean ([1]; nelfinavir, 1250 mg single oral dose with low calorie/low fat meal (125 Kcal/20% fat)): 23100 ng·h/mL
AUC(0-∞) (AUCinf), least-squares mean ([1]; nelfinavir, 1250 mg single oral dose with moderate calorie/low fat meal (500 Kcal/20% fat)): 33400 ng·h/mL
C12 (concentration at 12 hours postdose), mean ([1]; nelfinavir, 1250 mg single oral dose, 125 Kcal/20% fat): 0.65 µg/mL
C12 (concentration at 12 hours postdose), mean ([1]; nelfinavir, 1250 mg single oral dose, 500 Kcal/20% fat): 1.19 µg/mL
C12 (concentration at 12 hours postdose), mean ([1]; nelfinavir, 1250 mg single oral dose, 1000 Kcal/50% fat): 2.07 µg/mL
C12 (concentration at 12 hours postdose), mean ([1]; nelfinavir, 1250 mg single oral dose, fasting): 0.41 µg/mL
AUC12 (×fasting) [1, 10]: 2.2 X
AUCinf (×fasting) [1, 10]: 2.2 X
Cmax (×fasting) [1, 10]: 2.0 X
AUC12 (×fasting) [1, 11]: 2.8 X
AUCinf (×fasting) [1, 11]: 3.1 X
Cmax (×fasting) [1, 11]: 2.3 X
AUC12 (×fasting) [1, 12]: 4.3 X
AUCinf (×fasting) [1, 12]: 5.2 X
Cmax (×fasting) [1, 12]: 3.3 X
mean Cmax higher relative to fasting subjects ([1]; nelfinavir, high calorie meal): 3.3 fold
AUC(0-tlqc) ratio (100% × test/reference) [1, 13]: 430%
AUC(0-∞) ratio (100% × test/reference) [1, 13]: 520%
Cmax ratio (100% × test/reference) [1, 13]: 331%
t1/2 ratio (100% × test/reference) [1, 13]: 139%
tmax ratio (100% × test/reference) [1, 13]: 183%
mean Cmax higher relative to fasting subjects ([1]; nelfinavir, low calorie meal): 2 fold
AUC(0-tlqc) ratio (100% × test/reference) [1, 14]: 221%
AUC(0-∞) ratio (100% × test/reference) [1, 14]: 218%
Cmax ratio (100% × test/reference) [1, 14]: 201%
t1/2 ratio (100% × test/reference) [1, 14]: 87.5%
tmax ratio (100% × test/reference) [1, 14]: 139%
bioavailability higher relative to fasting subjects, based on AUC(0-∞) ([1]; nelfinavir, meal 1 (125 Kcal/20% fat)): 2.2 fold
bioavailability higher relative to fasting subjects, based on AUC(0-∞) ([1]; nelfinavir, meal 2 (500 Kcal/20% fat)): 3.1 fold
bioavailability higher relative to fasting subjects, based on AUC(0-∞) ([1]; nelfinavir, meal 3 (1000 Kcal/50% fat)): 5.2 fold
AUC increase over fasting state ([1]; nelfinavir, meals containing 500-1000 kcal and 20-50% fat): 3-5 fold
mean Cmax higher relative to fasting subjects ([1]; nelfinavir, moderate calorie meal): 2.3 fold
AUC(0-tlqc) ratio (100% × test/reference) [1, 15]: 282%
AUC(0-∞) ratio (100% × test/reference) [1, 15]: 314%
Cmax ratio (100% × test/reference) [1, 15]: 234%
t1/2 ratio (100% × test/reference) [1, 15]: 116%
tmax ratio (100% × test/reference) [1, 15]: 178%
Structure (SMILES): Cc1c(O)cccc1C(=O)N[C@@H](CSc1ccccc1)[C@H](O)CN1C[C@H]2CCCC[C@H]2C[C@H]1C(=O)NC(C)(C)C (relative stereo) [nelfinavir, [3S-(3R*, 4aR*, 8aR*, 2′S*, 3′S*)]-2-[2′ hydroxy-3′-phenylthiomethyl-4′-aza-5′-oxo-5′-(2″-methyl-3″-hydroxy-phenyl)pentyl]-decahydroiso-quinoline-3-N-t-butylcarboxamide methanesulfonic acid salt]
C12 values compared with Cmax in fasting subjects ([1]; nelfinavir, dose with the high calorie/high fat meal, FIG. 1): higher than Cmax values in fasting subjects
AUC under fasting conditions as % of AUC with food [2]: 27-50%
AUC, fed compared to fasting [3]: two to three-fold higher
maximum plasma concentrations, fed compared to fasting [3]: two to three-fold higher
AUC0-12h less with light breakfast than with standard breakfast [4]: 13%
effect of the two breakfasts on C1-hour post dose, Cmax and C12-hours [4]: No significant effects
oral bioavailability ([5]; animals fasted overnight): 29%
oral bioavailability ([5]; fed rats, dogs and monkeys (meal 30 minutes before drug administration)): 43%

Reference: patent US20040186066A1, “Method of treatment with nelfinavir” (AGOURON PHARMACEUTICALS, INC., priority 2003, published 2004)
